Source: patent US11708367B2, “Compounds for the treatment of kinase-dependent disorders” (Exelixis, Inc., priority 2018, dated 2023)

Experiments:
Human Axl = Human Axl (Homo sapiens (Human), UniProt P30530, Q764R); assay: Human AXL kinase assay (33P radiometric, KinaseProfiler); assay type: biochemical; conditions: 10 μM ATP
Method: (§1) Kinase activity and compound inhibition were investigated using the ^33P-Phosphoryl transfer radiometric kinase assay, performed using the KinaseProfiler™ service of Eurofins Pharma Discovery Services UK Limited. Dose-response experiments were performed using nine compound concentrations in a 96-well microtiter plate. For each assay, all compounds were prepared to a 50× final assay concentration (50 μM) in 100% DMSO, then diluted in a half-log series, with the final top concentration at 1 μM. This working stock of the compound was added to the assay well as the first component in the reaction, followed by the remaining components as detailed in the following assay protocols below. The positive control wells (100% kinase activity) contain all components of the reaction including 2% DMSO (control for solvent effects), except the compound of interest. Blank wells contain all components of the reaction, with the reference inhibitor, staurosporine. This reference compound was used to abolish kinase activity and generated the 0% kinase activity base-line. IC50 values were calculated by nonlinear regression analysis using the sigmoidal dose-response (variable slope) curve fit on XLFit version 5.3 (ID Business Solutions).
Human Axl (residues H473-A894 with Q764R, 161 nM) was incubated with 8 mM MOPS pH 7.0, 0.2 mM EDTA, 250 μM KKSRGDYMTMQIG (SEQ ID NO. 43), 10 mM magnesium acetate and 10 μM [γ-33P-ATP]. The reaction was initiated by the addition of the Mg/ATP mix. After incubation for 40 minutes at room temperature, the reaction was stopped by the addition of phosphoric acid to a concentration of 0.5%. A reaction aliquot of 10 μL was then spotted onto a P30 filtermat and washed four times for 4 minutes in 0.425% phosphoric acid and once in methanol prior to drying and scintillation counting. Incorporated ^33P was measured using the Wallac Microbeta scintillation counter (Perkin Elmer).

Met [1] = biological target: T1, Met (Homo sapiens (Human), UniProt P08581); assay: Human Met kinase assay (33P radiometric, KinaseProfiler); assay type: biochemical; conditions: 10 μM ATP, read-out: c-Met IC50
Method: as §1
Human Met (residues R974-S1390 with A1209G and V1290L, 3.4 nM) was incubated with 8 mM MOPS pH 7.0, 0.2 mM EDTA, 250 µM KKKGQEEEYVFIE (SEQ ID NO. 45), 1 mM sodium orthovanadate, 5 mM […], 10 mM magnesium acetate, and 10 μM [γ-33P-ATP]. The reaction was initiated by the addition of the Mg/ATP mix. After incubation for 40 minutes at room temperature, the reaction was stopped by the addition of phosphoric acid to a concentration of 0.5%. A reaction aliquot of 10 μL was then spotted onto a P30 filtermat and washed four times for 4 minutes in 0.425% phosphoric acid and once in methanol prior to drying and scintillation counting. Incorporated 33P was measured using the Wallac Microbeta scintillation counter (Perkin Elmer).

Mer = Mer (Homo sapiens (Human), UniProt Q12866); assay: Human Mer kinase assay (33P radiometric, KinaseProfiler); assay type: biochemical; conditions: 10 μM ATP
Chain of Mer (Q12866 557-882): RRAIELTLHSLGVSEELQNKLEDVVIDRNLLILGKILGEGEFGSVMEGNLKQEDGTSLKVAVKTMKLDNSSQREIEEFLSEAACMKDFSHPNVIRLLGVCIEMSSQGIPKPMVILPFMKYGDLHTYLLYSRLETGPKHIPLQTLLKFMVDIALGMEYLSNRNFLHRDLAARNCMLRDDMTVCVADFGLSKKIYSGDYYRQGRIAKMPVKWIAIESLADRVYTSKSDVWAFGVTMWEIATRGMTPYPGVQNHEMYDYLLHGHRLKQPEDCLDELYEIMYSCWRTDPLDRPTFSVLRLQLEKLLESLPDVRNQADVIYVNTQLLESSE
Method: as §1
Human Mer (residues R557-E882 with H628Q and R794A, 0.7 nM) was incubated with 8 mM MOPS pH 7.0, 0.2 mM EDTA, 30 mM NaCl, 250 μM GGMEDIYFEFMGGKKK (SEQ ID NO. 44), 10 mM magnesium acetate, and 10 μM [γ-33P-ATP]. The reaction was initiated by the addition of the Mg/ATP mix. After incubation for 40 minutes at room temperature, the reaction was stopped by the addition of phosphoric acid to a concentration of 0.5%. A reaction aliquot of 10 μL was then spotted onto a P30 filtermat and washed four times for 4 minutes in 0.425% phosphoric acid and once in methanol prior to drying and scintillation counting. Incorporated 33P was measured using the Wallac Microbeta scintillation counter (Perkin Elmer).

AXL = AXL (Homo sapiens (Human), UniProt P30530); assay: AXL autophosphorylation ELISA in A-172 cells; assay type: cell-based; conditions: cellular, Gas6-stimulated, phospho-AXL ELISA
Chain of AXL (P30530 26-894): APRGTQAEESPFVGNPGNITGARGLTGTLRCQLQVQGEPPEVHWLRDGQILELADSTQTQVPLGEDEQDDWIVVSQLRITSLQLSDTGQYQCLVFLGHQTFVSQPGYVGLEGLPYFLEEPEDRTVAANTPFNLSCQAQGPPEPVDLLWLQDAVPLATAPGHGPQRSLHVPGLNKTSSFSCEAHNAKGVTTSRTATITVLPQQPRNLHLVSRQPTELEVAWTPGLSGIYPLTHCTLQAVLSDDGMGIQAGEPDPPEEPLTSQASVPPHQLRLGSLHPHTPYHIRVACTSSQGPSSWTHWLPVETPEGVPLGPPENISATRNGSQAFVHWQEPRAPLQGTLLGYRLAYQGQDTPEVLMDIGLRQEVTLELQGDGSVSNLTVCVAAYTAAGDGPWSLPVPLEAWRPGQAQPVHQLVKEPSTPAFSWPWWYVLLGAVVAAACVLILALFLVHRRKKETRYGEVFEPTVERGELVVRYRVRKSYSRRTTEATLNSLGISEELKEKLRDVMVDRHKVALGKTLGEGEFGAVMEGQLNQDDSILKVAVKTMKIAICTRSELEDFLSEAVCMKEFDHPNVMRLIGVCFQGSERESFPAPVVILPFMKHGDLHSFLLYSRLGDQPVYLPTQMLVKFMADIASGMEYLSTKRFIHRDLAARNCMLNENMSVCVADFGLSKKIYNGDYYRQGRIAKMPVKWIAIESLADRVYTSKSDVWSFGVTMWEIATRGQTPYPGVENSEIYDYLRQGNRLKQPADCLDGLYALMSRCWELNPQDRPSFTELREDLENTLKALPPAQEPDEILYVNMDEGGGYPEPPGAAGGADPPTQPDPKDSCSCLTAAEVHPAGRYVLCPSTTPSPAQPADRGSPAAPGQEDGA
Method: A-172 glioblastoma cells (ATCC #CRL-1620) were seeded at 2.5×10^5 cells/well onto 24-well plates (Greiner #662165), in DMEM (Thermo Fisher #11995-040) containing 10% FBS (Thermo Fisher #26140-079), 1% MEM NEAA (Thermo Fisher #11140-050), 1% GlutaMax (Thermo Fisher #35050-061), and 1% Penicillin Streptomycin (Thermo Fisher #15140-122). A-172 cells were incubated at 37° C., 5% CO2 for 24 h and then starved for 24 h in serum-free medium. Test compounds were serially diluted to produce an 8-point dose curve in fresh serum-free medium to a final concentration of 0.3% DMSO (vehicle) and added to the cells and incubated for 1 h. Cells were then stimulated with 1 μg/mL recombinant human Gas6 (R&D Systems #885-GSB-500) for 15 min, washed with cold PBS, and immediately lysed with 150 μL of cold IX lysis buffer [20 mM Tris, 137 mM sodium chloride, 2 mM EDTA, 10% glycerol, 1% NP-40 alternative, 1 mM activated sodium orthovanadate, 1 mM PefaBloc SC (Sigma-Aldrich #11429868001), protease/phosphatase inhibitor tablet (Thermo Fisher #A32959)]. Lysates were collected and 100 μL/well added into the human phospho-AXL Duo Set IC ELISA (R&D Systems #DYC2228-2). Assay was performed according to manufacturer's instructions and sample phospho-AXL concentrations were extrapolated using human phospho-AXL control (R&D Systems #841645) as a standard. Positive control wells (100% activity) contained Gas6-stimulated, DMSO-treated cell lysates. Negative control wells (0% activity) contained Gas6-stimulated, reference inhibitor-treated cell lysates. IC50 values were calculated by nonlinear regression analysis using a 4-parameter logistic curve fit in ActivityBase XL (IDBS).

Met [2] = biological target: T1, Met; assay: Met autophosphorylation ELISA in PC-3 cells; assay type: cell-based; conditions: cellular, HGF-stimulated, phospho-Met ELISA, read-out: c-Met IC50
Method: PC-3 prostate cancer cells (ATCC #CRL-1435) were seeded at 4×10^4 cells/well onto 24-well plates (Greiner #662165), in DMEM (Thermo Fisher #11995-040) containing 10% FBS (Thermo Fisher #26140-079), 1% MEM NEAA (Thermo Fisher #11140-050), 1% GlutaMax (Thermo Fisher #35050-061), and 1% Penicillin Streptomycin (Thermo Fisher #15140-122). PC-3 cells were incubated at 37° C., 5% CO2 for 24 h and then starved for 3 h in serum-free medium. Test compounds were serially diluted to produce an 8-point dose curve in fresh serum-free medium to a final concentration of 0.3% DMSO (vehicle) and added to the cells and incubated for 1 h. Cells were then stimulated with 100 ng/mL recombinant human HGF (R&D Systems #294-HG-250) for 10 min, washed with cold PBS, and immediately lysed with 130 μL of cold IX lysis buffer [20 mM Tris, 137 mM sodium chloride, 2 mM EDTA, 10% glycerol, 1% NP-40 alternative, 1 mM activated sodium orthovanadate, 1 mM PefaBloc SC (Sigma-Aldrich #11429868001), protease/phosphatase inhibitor tablet (Thermo Fisher #A32959)]. Lysates were clarified by centrifugation and 100 μL/well added into the PathScan phospho-Met (panTyr) Sandwich ELISA (Cell Signaling Technology #7333). Assay was performed according to manufacturer's instructions. Positive control wells (100% activity) contained HGF-stimulated, DMSO-treated cell lysates. Negative control wells (0% activity) contained HGF-stimulated, reference inhibitor-treated cell lysates. IC50 values were calculated by nonlinear regression analysis using a 4-parameter logistic curve fit in ActivityBase XL (IDBS).
Target sequence in this assay (P08581 25-1390): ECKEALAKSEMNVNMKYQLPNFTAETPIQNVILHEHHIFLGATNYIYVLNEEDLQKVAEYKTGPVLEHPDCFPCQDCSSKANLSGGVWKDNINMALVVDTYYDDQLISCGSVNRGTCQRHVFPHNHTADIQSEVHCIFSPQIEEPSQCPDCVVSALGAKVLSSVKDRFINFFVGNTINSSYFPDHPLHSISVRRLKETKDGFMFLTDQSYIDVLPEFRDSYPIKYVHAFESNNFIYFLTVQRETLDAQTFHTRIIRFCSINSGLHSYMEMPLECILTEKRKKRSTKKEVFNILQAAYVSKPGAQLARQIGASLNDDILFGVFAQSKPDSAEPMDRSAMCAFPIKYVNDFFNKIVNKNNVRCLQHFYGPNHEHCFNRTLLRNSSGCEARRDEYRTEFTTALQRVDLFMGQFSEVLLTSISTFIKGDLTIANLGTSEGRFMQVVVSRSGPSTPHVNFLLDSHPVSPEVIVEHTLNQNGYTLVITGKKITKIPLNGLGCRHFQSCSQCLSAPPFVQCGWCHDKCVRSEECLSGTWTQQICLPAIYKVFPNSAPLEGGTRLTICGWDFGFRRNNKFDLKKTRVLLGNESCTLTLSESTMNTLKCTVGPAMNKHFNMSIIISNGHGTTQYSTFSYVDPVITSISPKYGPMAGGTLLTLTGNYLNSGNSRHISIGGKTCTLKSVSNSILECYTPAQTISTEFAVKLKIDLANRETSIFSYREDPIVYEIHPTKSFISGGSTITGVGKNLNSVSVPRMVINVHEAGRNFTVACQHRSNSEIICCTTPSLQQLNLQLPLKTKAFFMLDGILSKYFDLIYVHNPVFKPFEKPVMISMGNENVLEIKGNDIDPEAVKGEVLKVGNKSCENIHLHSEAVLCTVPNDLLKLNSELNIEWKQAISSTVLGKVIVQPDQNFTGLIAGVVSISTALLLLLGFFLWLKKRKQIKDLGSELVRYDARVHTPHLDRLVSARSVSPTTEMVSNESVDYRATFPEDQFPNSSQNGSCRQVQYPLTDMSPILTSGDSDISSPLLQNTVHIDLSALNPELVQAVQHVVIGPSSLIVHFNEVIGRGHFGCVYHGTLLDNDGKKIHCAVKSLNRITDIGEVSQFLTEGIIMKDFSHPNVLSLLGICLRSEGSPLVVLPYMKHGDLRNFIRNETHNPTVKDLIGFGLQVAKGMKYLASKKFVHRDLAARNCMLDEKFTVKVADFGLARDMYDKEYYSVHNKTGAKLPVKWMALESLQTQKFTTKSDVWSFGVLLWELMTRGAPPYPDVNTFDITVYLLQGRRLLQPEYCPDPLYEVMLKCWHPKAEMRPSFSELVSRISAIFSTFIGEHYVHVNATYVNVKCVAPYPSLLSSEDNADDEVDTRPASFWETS

KDR = KDR (Homo sapiens (Human), UniProt P35968); assay: KDR autophosphorylation ELISA in HUVEC cells; assay type: cell-based; conditions: cellular, VEGF165-stimulated, phospho-KDR ELISA
Chain of KDR (P35968 20-1356): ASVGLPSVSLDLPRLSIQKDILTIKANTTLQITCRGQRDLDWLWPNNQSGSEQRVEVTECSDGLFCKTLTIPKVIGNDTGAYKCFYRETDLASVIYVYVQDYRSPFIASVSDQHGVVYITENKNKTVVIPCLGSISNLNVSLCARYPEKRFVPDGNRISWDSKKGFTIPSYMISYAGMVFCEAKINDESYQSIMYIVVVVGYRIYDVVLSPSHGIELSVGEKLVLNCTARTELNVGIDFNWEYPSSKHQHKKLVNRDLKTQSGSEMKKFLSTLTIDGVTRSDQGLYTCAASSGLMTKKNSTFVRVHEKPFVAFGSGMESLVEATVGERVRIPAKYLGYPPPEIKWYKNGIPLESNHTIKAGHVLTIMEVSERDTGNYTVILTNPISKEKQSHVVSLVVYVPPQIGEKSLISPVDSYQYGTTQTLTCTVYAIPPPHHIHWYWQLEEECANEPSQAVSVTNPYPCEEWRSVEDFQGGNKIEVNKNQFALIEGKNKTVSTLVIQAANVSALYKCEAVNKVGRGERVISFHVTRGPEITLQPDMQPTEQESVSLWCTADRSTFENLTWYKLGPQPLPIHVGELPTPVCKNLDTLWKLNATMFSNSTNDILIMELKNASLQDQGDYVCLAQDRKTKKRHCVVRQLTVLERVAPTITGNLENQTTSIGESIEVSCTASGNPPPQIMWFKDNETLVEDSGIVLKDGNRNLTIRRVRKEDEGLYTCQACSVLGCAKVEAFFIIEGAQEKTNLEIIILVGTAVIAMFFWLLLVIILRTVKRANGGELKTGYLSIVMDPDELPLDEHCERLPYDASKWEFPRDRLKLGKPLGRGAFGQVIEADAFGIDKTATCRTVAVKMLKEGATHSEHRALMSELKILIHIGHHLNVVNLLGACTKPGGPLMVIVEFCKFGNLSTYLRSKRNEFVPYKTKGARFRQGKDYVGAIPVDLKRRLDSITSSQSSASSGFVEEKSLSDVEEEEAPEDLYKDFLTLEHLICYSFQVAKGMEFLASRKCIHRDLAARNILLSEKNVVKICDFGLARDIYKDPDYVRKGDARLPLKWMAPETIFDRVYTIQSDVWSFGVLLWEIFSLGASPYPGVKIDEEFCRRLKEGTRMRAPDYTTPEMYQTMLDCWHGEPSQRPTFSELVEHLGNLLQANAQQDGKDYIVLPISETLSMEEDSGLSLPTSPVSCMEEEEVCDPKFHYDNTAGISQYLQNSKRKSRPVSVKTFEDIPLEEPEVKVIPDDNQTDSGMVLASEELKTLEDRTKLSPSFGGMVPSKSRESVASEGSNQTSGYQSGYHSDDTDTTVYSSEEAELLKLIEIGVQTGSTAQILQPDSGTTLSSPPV
Method: Human umbilical vein endothelial cells or HUVEC (Lonza #C2519A) were seeded at 2×10^4 cells/well onto 96-well plates (Corning #3904), in EGM-2 growth medium (Lonza #CC-3162) containing 1% Penicillin Streptomycin (Thermo Fisher #15140-122). HUVEC cells were incubated at 37° C., 5% CO2 for 24 h and then starved for 24 h in serum-free EBM-2 basal medium (Lonza #CC-3156) containing 1% Penicillin Streptomycin. Test compounds were serially diluted to produce an 8-point dose curve in fresh serum-free medium to a final concentration of 0.3% DMSO (vehicle) and added to the cells and incubated for 1 h. Cells were then stimulated with 100 ng/mL recombinant human VEGF165 (R&D Systems #293-VE-500) for 5 min, washed with cold PBS, and immediately lysed with 130 μL of cold 1× lysis buffer [20 mM Tris, 137 mM sodium chloride, 2 mM EDTA, 10% glycerol, 1% NP-40 alternative, 1 mM activated sodium orthovanadate, 1 mM PefaBloc SC (Sigma-Aldrich #11429868001), protease/phosphatase inhibitor tablet (Thermo Fisher #A32959)]. Lysates were collected and 100 μL/well added into the human phospho-KDR Duo Set IC ELISA (R&D Systems #DYC 1766-2). Assay was performed according to manufacturer's instructions and sample phospho-KDR concentrations were extrapolated using human phospho-KDR control (R&D Systems #841421) as a standard. Positive control wells (100% activity) contained VEGF165-stimulated, DMSO-treated cell lysates. Negative control wells (0% activity) contained non-stimulated cell lysates. IC50 values were calculated by nonlinear regression analysis using a 4-parameter logistic curve fit in ActivityBase XE (IDBS).

Chain of Human Axl (P30530 473-894 Q764R): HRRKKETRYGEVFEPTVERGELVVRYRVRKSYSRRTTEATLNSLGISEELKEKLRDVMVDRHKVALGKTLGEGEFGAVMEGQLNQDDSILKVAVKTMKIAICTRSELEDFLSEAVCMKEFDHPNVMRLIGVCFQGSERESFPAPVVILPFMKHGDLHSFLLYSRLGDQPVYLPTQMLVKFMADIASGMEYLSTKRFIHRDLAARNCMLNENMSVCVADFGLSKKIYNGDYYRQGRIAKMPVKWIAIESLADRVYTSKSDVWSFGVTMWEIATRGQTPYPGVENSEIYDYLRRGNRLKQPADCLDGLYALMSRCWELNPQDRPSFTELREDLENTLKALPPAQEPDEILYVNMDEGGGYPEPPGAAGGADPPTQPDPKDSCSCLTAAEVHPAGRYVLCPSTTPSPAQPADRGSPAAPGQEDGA

Row | Structure (SMILES) | IC50 (Human Axl) | IC50 (Met [1]) | IC50 (Mer) | IC50 (AXL) | IC50 (Met [2]) | IC50 (KDR)
1 | COc1cc2ncnc(Oc3ccc(NC(=O)C4(C(=O)Nc5ccc(F)cc5)CC4)cc3)c2nc1C#N [Compound 57, 1-N-[4-(6-cyano-7-methoxypyrido[3,2-d]pyrimidin-4-yl)oxyphenyl]-1-N′-(4-fluorophenyl)cyclopropane-1,1-dicarboxamide] | 100 to 1000 nM | 100 to 1000 nM | 10 to 100 nM | – | – | –
2 | O=C(Nc1ccc(F)cc1)C1(C(=O)Nc2ccc(Oc3ncnc4cc5c(nc34)CCCC5)cc2)CC1 [Compound 52, 1-N′-(4-fluorophenyl)-1-N-[4-(6,7,8,9-tetrahydro-pyrimido[5,4-b]quinolin-4-yloxy)phenyl]cyclo-propane-1,1-dicarboxamide] | 100 to 1000 nM | 100 to 1000 nM | 100 to 1000 nM | – | – | –
3 | O=C(Nc1ccc(F)cc1)C1(C(=O)Nc2ccc(Oc3ncnc4cc(Cl)ncc34)cc2)CC1 [Compound 101, 1-N-[4-(7-chloropyrido[4,3-d]pyrimidin-4-yl)oxy-phenyl]-1-N′-(4-fluorophenyl)cyclo-propane-1,1-dicarboxamide] | 100 to 1000 nM | 100 to 1000 nM | 100 to 1000 nM | – | – | –
4 | COc1cc2nccc(Oc3ccc(NC(=O)C4(C(=O)Nc5ccc(F)cc5)CC4)cc3F)c2nc1C#N [Compound 165, 1-N′-[4-[(6-cyano-7-methoxy-1,5-naphthyridin-4-yl)oxy]-3-fluorophenyl]-1-N-(4-fluorophenyl)cyclo-propane-1,1-dicarboxamide] | – | – | – | 10 to 100 nM | 100 to 300 nM | 100 to 300 nM
5 | COc1cc2nccc(Oc3ccc(NC(=O)C4(C(=O)Nc5ccc(F)cc5)CC4)cc3)c2nc1-c1cn[nH]c1 [Compound 183, 1-N′-(4-fluorophenyl)-1-N-[4-[[7-methoxy-6-(1H-pyrazol-4-yl)-1,5-naphthyridin-4-yl]oxy]phenyl]cyclopropane-1,1-dicarboxamide] | – | – | – | > 300 nM | > 300 nM | > 300 nM
6 | COc1cc2ncnc(Oc3ccc(NC(=O)C4(C(=O)Nc5ccc(F)cc5)CC4)c(Cl)c3)c2nc1OC [Compound 32, 1-N′-[2-chloro-4-(6,7-dimethoxypyrido[3,2-d]pyrimidin-4-yl)oxyphenyl]-1-N-(4-fluorophenyl)cyclo-propane-1,1-dicarboxamide] | – | – | – | 10 to 100 nM | 100 to 300 nM | 100 to 300 nM
7 | COc1cc2nccc(Oc3ccc(NC(=O)C4(C(=O)Nc5ccc(F)cc5)CC4)cc3)c2nc1C(=O)N(C)C [Compound 174, 1-N-[4-[[6-(dimethyl-carbamoyl)-7-methoxy-1,5-naphthyridin-4-yl]oxy]phenyl]-1-N′-(4-fluorophenyl)cyclopropane-1,1-dicarboxamide] | – | – | – | > 300 nM | 100 to 300 nM | > 300 nM
8 | COCCOc1cc2nccc(Oc3cc(F)c(NC(=O)C4(C(=O)Nc5ccc(F)cc5)CC4)cc3F)c2nc1OC [Compound 152, 1-N′-[2,5-difluoro-4-[[6-methoxy-7-(2-methoxy-ethoxy)-1,5-naphthyridin-4-yl]oxy]phenyl]-1-N-(4-fluoro-phenyl)cyclopropane-1,1-dicarboxamide] | – | – | – | ≤ 10 nM | 10 to 100 nM | ≤ 10 nM
9 | COc1cc2ncnc(Oc3ccc(NC(=O)C4(C(=O)Nc5ccc(F)cc5)CC4)c(C)c3)c2nc1OC [Compound 33, 1-N′-[4-(6,7-dimethoxypyrido[3,2-d]pyrimidin-4-yl)oxy-2-methylphenyl]-1-N-(4-fluorophenyl)cyclopropane-1,1-dicarboxamide] | – | – | – | 100 to 300 nM | > 300 nM | 100 to 300 nM
10 | COc1cc2nccc(Oc3cc(F)c(NC(=O)C4(C(=O)Nc5ccc(F)cc5)CC4)cc3F)c2nc1OC [Compound 142, 1-N′-[4-[(6,7-dimethoxy-1,5-naphthyridin-4-yl)oxy]-2,5-difluorophenyl]-1-N-(4-fluorophenyl)cyclo-propane-1,1-dicarboxamide] | – | – | – | ≤ 10 nM | 10 to 100 nM | ≤ 10 nM
